In brackets after ≈: the same amount, converted by molar mass. Several values for one entry are separate records, joined by “and”; a condition that tells them apart may be missing. Identical values can stand only once. Like-named read-outs stand apart in the source and are kept apart here.
Key:
[1] = tested on: Geotrichum; assay: MIC, macro broth dilution technique (NCCLS), isolates from rhinosinusitis patients; assay type: cell-based; conditions: 48 hour MIC reading
Description: (§1) The following procedure was used to determine effective antifungal agents as well as effective concentrations of antifungal agents such that the fungal organisms isolated from patients can be prevented from growing or killed.
(§2) Seventeen fungal isolates were collected from eight rhinosinusitis patients and tested for susceptibility against amphotericin B, ketoconazole, and itraconazole. Each antifungal agent was tested on these fungal isolates using the macro broth dilution technique according to the National Committee on Clinical Laboratory Standards (NCCLS) protocol. […] The results from this procedure provided an estimate of the efficacy of antifungal agents against specific fungal isolates in vitro.

[2] = tested on: Trichoderma; assay: as above; assay type: cell-based; conditions: 48 hour MIC reading
Description: as §1, §2

[3] = tested on: non-invasive fungus-induced rhinosinusitis patients; assay: Amphotericin B nasal irrigation study, three month follow-up (Example 2); assay type: in vivo, human
Source text: In addition to patient interviewing, CT scan analysis, visual examination, and fungal culture analysis, two types of evaluations were used to score the success of the treatment: an endoscopic evaluation and a patient symptom evaluation.

[4] = tested on: fungal organisms within their mucus; assay: Analysis of mucus samples of non-responding patients for resistance; assay type: cell-based; conditions: five of the nine non-responding patients
Source text: Eleven of the 53 patients went from endoscopic evaluation stage 2 or 3 to stage 1 after three months. […] Five of the nine non-responding patients had previously collected mucus samples that were available for examination.

[5] = tested on: patient with rhinosinusitis; assay: Single patient study, one-sided then two-sided amphotericin B irrigation, RAST assay to Alternaria; assay type: in vivo, human
Source text: In addition, the previously detected fungal load in the initially untreated side (right side) was sufficient to eventually cause presentation of visual or palpable rhinosinusitis symptoms in that initially untreated side. Further, the fungal organisms present in the initially untreated side (right side) induced high IgE titers, as shown by IgE readings from the RAST assays, independent of concurrent reduction of fungal organisms by antifungal treatment applied to the left side. In this case, a reduction of IgE readings from the RAST assays was only observed after irrigating both sides with an antifungal agent. Thus, the reduction of IgE and the prevention of disease symptoms coincided with the treatment of both sides with an antifungal agent.

[6] = tested on: non-invasive fungus-induced rhinosinusitis patients; assay: Patient data collected during a one week period (amphotericin B nasal irrigations); assay type: in vivo, human; design: Endoscopy Score B / Endoscopy Score A / Symptom Score B: scale not given here
Source text: In addition to patient interviewing, CT scan analysis, visual examination, and fungal culture analysis, two types of evaluations were used to score the success of the treatment: an endoscopic evaluation and a patient symptom evaluation. These evaluations were scored as follows:
Only previously seen patients that were instructed to use the antifungal amphotericin B nasal irrigations were entered into this study.
During a one week period, twenty patients returned to the physician's office (Table II). The average age of the returning patients was 47 years (range 16-74 years). The patients were using the amphotericin B irrigations for an average duration of about six months (range 1-16 months). […] In addition, some patients were using topical and systemic steroid therapy. Further, some patients were using an antibiotic nasal irrigation in addition to the antifungal irrigations. The antibacterial solution contained 80 mg gentamicin per L saline (Wilson's solution). Some patients mixed the antibacterial solution with the antifungal solution and then performed the nasal irrigations while others used each solution separately in a sequential manner. Some patients also had other diseases including asthma (15 of the 20 patients) and colitis (2 of the 20 patients).

[7] = tested on: non-invasive fungus-induced rhinosinusitis patients; assay: Amphotericin B irrigations in patients without previous nasal surgery (Example 3); assay type: in vivo, human
Source text: A person was diagnosed with non-invasive fungus-induced rhinosinusitis and instructed to perform amphotericin B irrigations twice a day.
A person was diagnosed with non-invasive fungus-induced rhinosinusitis and instructed to perform amphotericin B irrigations twice a day, which was later increased to four times a day.
A person was diagnosed with non-invasive fungus-induced rhinosinusitis and instructed to perform amphotericin B irrigations twice a day. This patient had been given intramuscular steroid shots every 3 to 8 months with the last shot being administered about seven months prior to starting the amphotericin B irrigations.

[8] = tested on: non-invasive fungus-induced rhinosinusitis patient; assay: Eosinophil count in mucosal biopsies after amphotericin B irrigations (Example 4); assay type: in vivo, human
Source text: A person was diagnosed with non-invasive fungus-induced rhinosinusitis and instructed to perform amphotericin B irrigations twice a day. After nine months of amphotericin B irrigations, the patient underwent sinus surgery for further improvement. During the surgery mucosal biopsies were collected and the eosinophil count compared to the those obtained from biopsies collected from the patient during a surgery prior to the antifungal treatment.

[9] = tested on: patients with chronic asthma; assay: Chronic asthma symptoms in patients of the Example 2 study (Example 5); assay type: in vivo, human
Description: One hundred and thirty-two consecutive rhinosinusitis patients were entered into a study to evaluate the use of an antifungal agent to treat non-invasive fungus-induced rhinosinusitis. […] The 125 non-invasive fungus-induced rhinosinusitis patients were started on an antifungal treatment of about 20 mL of an amphotericin B solution per nostril, two to four times daily for at least three months. The concentration of the amphotericin B solution was about 100 mg per liter of saline or water. A 20 mL bulb was used by the patient to mucoadminister the amphotericin B solution into the patient's nasal-paranasal anatomy. Data were compiled for 53 of the patients who had returned for their three month follow-up analysis.

[10] = tested on: non-invasive fungus-induced rhinosinusitis patients; assay: Itraconazole nasal irrigation (Example 7); assay type: in vivo, human; conditions: for adverse local reaction to nasal irrigations: third patient
Description: Three non-invasive fungus-induced rhinosinusitis patients (person, person, and person) were instructed to perform nasal irrigation with an itraconazole solution. The itraconazole solution contained about 100 mg of itraconazole per L of solution (10% PEG-400 in sterile water) and was prepared as described herein. […] Each patient reported marked improvement in symptoms within two weeks of starting the itraconazole irrigations (symptom scores: -1 to +2 and -1 to +1).
After treatment with itraconazole, that patient reported symptom improvement (symptom score: from -1 to 0).

[11] = tested on: Candida; assay: MIC, macro broth dilution technique (NCCLS), isolates from rhinosinusitis patients; assay type: cell-based; conditions: 48 h, 48 hour MIC reading, each table line is one isolate
Description: as §1, §2

[12] = tested on: Cladosporium; assay: as above; assay type: cell-based; conditions: 48 h, 48 hour MIC reading, each table line is one isolate
Description: as §1, §2

[13] = tested on: Penicillium; assay: as above; assay type: cell-based; conditions: 48 h, 48 hour MIC reading, each table line is one isolate
Description: as §1, §2

[14] = Concentrations of itraconazole in solution by HPLC; assay type: physicochemical; conditions: read-out: Soluble Itraconazole Concentration
Description: Itraconazole formulations were made by dissolving itraconazole into polyethylene glycol (PEG) to form an itraconazole stock solution. […] Typically, PEG 400 was used to dissolve the itraconazole. Once dissolved, the stock solution was filtered to remove any insoluble material. Then, the stock solution was prepared for use by dilution with sterile water. […] One liter of heated (70° C.) PEG-400 was added to the graduated cylinder containing the itraconazole. The mixture was then placed onto a stirring hot plate and maintained at 70° C. for 30 minutes. After 30 minutes, the hot suspension was filtered through a urine stone filter into a glass container and allowed to cool to room temperature. Once cooled, 100 mL of the filtered solution was placed into an empty plastic bottle. Then, 900 mL of sterile water was added and the solution mixed. Once mixed, one drop of flavoring was added (peppermint oil). […] The following concentrations of itraconazole were determined for each indicated solution by HPLC (Table III).

[15] = tested on: patient with asthma symptoms; assay: Itraconazole nasal irrigation in an asthma patient, pulmonary function (Example 8); assay type: in vivo, human; conditions: before antifungal treatment
Description: Sputum and nasal-paranasal mucus samples were collected and analyzed.
The concentration of the itraconazole solution was about 100 mg per liter. After a few weeks, the patient took their last course of systemic steroids. About two months after stopping the systemic steroids, the patient also stopped using the topical steroids as well as the bronchodilator.

[16] = Oral itraconazole capsule, drug remaining in the bowel lumen (Example 10); assay type: in vivo, human; conditions: 100 mg capsule before bedtime, two hours after last meal, without cola
Source text: Three out of five consecutive patients with chronic rhinosinusitis reported having a history of colitis. […] Each patient was instructed to take the capsule before bedtime a minimum of two hours after their last meal and without any cola. Food and cola beverages increase absorption of the drug.

[17] = patient symptom evaluation after treatment, 53 patients
[18] = after antifungal treatment (1-16 months, 1-2 x day), each table line is one patient
[19] = before antifungal treatment, each table line is one patient
[20] = sixteen days after starting the itraconazole irrigations

SMILES: C[C@@H]1[C@H](O)[C@@H](C)/C=C/C=C/C=C/C=C/C=C/C=C/C=C/[C@H](O[C@@H]2O[C@H](C)[C@@H](O)[C@H](N)[C@@H]2O)C[C@@H]2O[C@](O)(C[C@@H](O)C[C@@H](O)[C@H](O)CC[C@@H](O)C[C@@H](O)CC(=O)O[C@H]1C)C[C@H](O)[C@H]2C(=O)O [Amphotericin B, amphotericin B]
- MIC [1]: 0.1 µg/mL (≈ 0.108 µM)
- MIC [2]: 4 µg/mL (≈ 4.33 µM)
- patients who went from endoscopic evaluation stage 2 or 3 to stage 0 ([3]; about 20 mL amphotericin B solution (about 100 mg per liter) per nostril, two to four times daily, after three months, 53 patients): 33 of the 53
- CT scan finding ([3]; one patient with bilateral rhinosinusitis, 20 mL (100 mg/L) per nostril two times daily, after four months): complete disappearance of opacity and symptoms characteristic of rhinosinusitis
- patients giving themselves symptom stage 0 [3, 17]: six of the 53
- patients giving themselves symptom stage 1 [3, 17]: three of the 53
- patients giving themselves symptom stage 2 [3, 17]: 44 of the 53
- patients who did not respond to the treatment (endoscopic evaluation) ([3]; same regimen, after three months, 53 patients): nine
- number of different fungal species in mucus after treatment ([3]; several patients, mucus cultured before and after antifungal treatment): remarkably reduced
- susceptibility of fungal organisms in mucus of non-responding patients [4]: resistant
- RAST reading to Alternaria ([5]; after right-side surgery and treatment of both sides for about seven weeks): 4.47 KU/L
- clinical status ([5]; after treatment of both sides for about seven weeks): symptom-free
- Endoscopy Score A [6, 18]: 0 (10×) and 3 (5×) and 1 (2×)
- Symptom Score A [6, 18]: +1 (6×) and +2 (6×) and 0 (6×) and −2 and 1
- Endoscopy Score B [6, 19]: 1 (3×) and 2 (5×) and 3 (10×) and 0
- Symptom Score B [6, 19]: −1 (14×) and −2 (6×)
- endoscopic evaluation of rhinosinusitis condition ([6]; most of twenty patients): observable improvement
- endoscopic score after treatment ([7]; amphotericin B irrigations twice (to four times) a day for four to sixteen months): 0
- symptom score before treatment ([7]; patients without previous nasal surgery): −1
- eosinophil count in mucosal biopsies ([8]; all the sinuses except the frontal, after nine months of irrigations twice a day): < 5%
- eosinophil count in the frontal sinus biopsy ([8]; frontal sinus (obstructed, irrigation presumably did not reach it), after nine months): 10%
- asthmatic patients declaring an improvement or complete elimination of asthma symptoms ([9]; after three months of antifungal treatment, 37 asthmatic patients): 28 of the 37
- patients with improved pulmonary function (pulmonary function test before and after) ([9]; four patients tested): all four
- patients who stopped taking their asthma medication ([9]; of the 28 patients no longer exhibiting asthma symptoms): 26 of the 28
- adverse local reaction to nasal irrigations [10]: burning sensation

SMILES: CCC(C)n1ncn(-c2ccc(N3CCN(c4ccc(OCC5COC(Cn6cncn6)(c6ccc(Cl)cc6Cl)O5)cc4)CC3)cc2)c1=O (centres unmarked) [Itraconazole, itraconazole]
- MIC [11]: 0.03 µg/mL (≈ 0.0425 µM)
- MIC [12]: 0.125 µg/mL (≈ 0.177 µM)
- MIC [13]: 0.5 µg/mL (≈ 0.709 µM)
- solubility ([14]; PEG-400, organic solvent or mixture, 500 mg Itraconazole powder AS into 250 mL PEG-400 (stock solution)): 1950 µg/mL (≈ 2760 µM)
- solubility at 30 min ([14]; PEG-400, organic solvent or mixture, 2000 mg Itraconazole from capsules into 1 L PEG-400 (stock solution)): 1840 µg/mL (≈ 2610 µM)
- solubility ([14]; PEG-400/sterile water solution, aqueous with cosolvent or surfactant or cyclodextrin, kinetic from dmso stock, 100 mL capsule stock solution diluted with 900 mL sterile water): 113 µg/mL (≈ 160 µM)
- solubility ([14]; PEG-400/sterile water solution, aqueous with cosolvent or surfactant or cyclodextrin, kinetic from dmso stock, 100 mL capsule stock solution plus 25 mL PEG-400 diluted with 875 mL sterile water): 155 µg/mL
- solubility ([14]; PEG-400/sterile water solution, aqueous with cosolvent or surfactant or cyclodextrin, kinetic from dmso stock, 100 mL capsule stock solution plus 150 mL PEG-400 diluted with 750 mL sterile water): 179 µg/mL
- solubility ([14]; PEG-400/sterile water solution, aqueous with cosolvent or surfactant or cyclodextrin, kinetic from dmso stock, 100 mL powder AS stock solution diluted with 900 mL sterile water): 85 µg/mL (≈ 120 µM)
- symptom score before itraconazole irrigations ([10]; itraconazole solution about 100 mg per L (10% PEG-400 in sterile water)): -1
- endoscopic score, left side, before ([10]; one patient): 1
- endoscopic score, right side, before ([10]; one patient): 1
- endoscopic score, left side, after [10, 20]: 1
- endoscopic score, right side, after [10, 20]: 0
- adverse local reaction to nasal irrigations [10]: did not have any adverse local reaction
- forced expiratory volume in 1 second (FEV1) before treatment [15]: 3.34 L
- forced vital capacity (FVC) before treatment [15]: 3.99 L
- maximal forced expiratory flow (FEFmax) before treatment [15]: 9.1 liter per second
- maximum voluntary ventilation (MVV) before treatment [15]: 119 liter per minute
- itraconazole that should remain in the bowel lumen [16]: about 50%

SMILES: CC(=O)N1CCN(c2ccc(OCC3COC(Cn4ccnc4)(c4ccc(Cl)cc4Cl)O3)cc2)CC1 (centres unmarked) [Ketoconazole, ketoconazole]
- MIC ([1]; read-out: MIC): 0.05 µg/mL (≈ 0.0941 µM)
- MIC ([2]; read-out: MIC): 50 µg/mL (≈ 94.1 µM)
